Reference: paper PMC8728392, “Synthesis, Anticancer Assessment, and Molecular Docking of Novel Chalcone-Thienopyrimidine Derivatives in HepG2 and MCF-7 Cell Lines” (Oxidative Medicine and Cellular Longevity, 2021)

Assays:
[1] = tested on: human breast cancer cell line (MCF-7); assay: MTT assay, cytotoxicity; format: cell-based; settings: for survival percentage (mean ± SEM): MCF-7, 24 hours
Experimental: (§1) Cancer cell lines were manipulated according to the method described by Sigounas et al.. In this method, the cell lines were grown as adherent monolayers in T75 flasks with Dulbecco's modified Eagle's medium (DMEM) supplemented with 10% Fetal Bovine Serum (FBS), 2 mM L-glutamine, and 1% streptomycin/penicillin. The cells were left to grow in a CO2 incubator at 37°C, 5% CO2, and 95% humidity until their confluence.
(§2) The 3-[4,5-dimethylthiazol-2-yl]-2,5-diphenyltetrazolium bromide (MTT) colorimetric assay was used to examine the sensitivity of cells to tested compounds (as anticancer drugs), as previously described. This assay depends on the production of a purple formazan derivative from the yellow tetrazolium bromide (MTT) by mitochondrial succinate dehydrogenase in viable cells. The percentage of cell survival was calculated as follows: (1) Percentage of survival=O.D.treated cells/O.D.control cells×100.
(§3) For preliminary screening of the cytotoxicity of synthesized compounds 3a-g, cells exposed to DMSO were used as a control. Plotting the relationship between the survival score and the compound concentration and calculating the IC50 (the concentration required to inhibit cell viability by 50%) were performed for each test compound according to Li et al. in comparison with the reference standard anticancer agent, 5-FU.
(§4) The 3-[4,5-dimethylthiazol-2-yl]-2,5-diphenyltetrazolium bromide (MTT) colorimetric assay was used to examine the sensitivity of cells to tested compounds (as anticancer drugs), as previously described by Hussein et al. (2017). This assay depend on the production of a purple formazan derivative from the yellow tetrazolium bromide (MTT) by mitochondrial succinate dehydrogenase in viable cells. Briefly, after harvesting the cells with 0.25% trypsin, the cell lines were suspended in DMEM. Cells were seeded in 96-well microtiter plates at a concentration of 5×10^4 cell/well in a fresh medium and left to attach to the plates for 24 h before treatment with the tested compounds 3a-g. Test compounds were dissolved in dimethyl sulfoxide (DMSO). After 24 hours, cells were incubated with the appropriate concentration ranges of compounds, the wells were diluted to […] with fresh medium and incubation was continued for 24 hours. Three wells were used for each concentration. After 24 hours of treatment, 20 μl of MTT solution (5mg/ml) was added and subsequently the plates were further incubated for 4 hours to allow the viable cells to biotransform the yellow-colored MTT into purple formazan crystals. The optical density (O.D.) of each well was measured spectrophotometrically at […] with an enzyme-linked immunosorbent assay (ELISA) microplate reader (BioTek, EL-800, USA). The percentage of cell survival was calculated as follows: […]

[2] = tested on: human liver cancer cell line (HepG2); assay: MTT assay, cytotoxicity; format: cell-based; settings: for survival percentage (mean ± SEM): HepG2, 24 hours
Experimental: as §1, §2, §3, §4

[3] = tested on: Bax, Bcl-2, caspase-3, and caspase-9 in HepG2; assay: RT-PCR relative expression of apoptosis markers; format: cell-based, human; settings: IC50, 8-hour incubation, vs control
From the text: We determined the effect of IC50 concentration of newly synthesized thienopyrimidine derivatives (3a-e and 3g and 3b and 3g) on the relative expression levels of some markers of apoptosis in HepG2 and MCF-7 cell lines, respectively. These included the antiapoptotic marker Bcl-2 as well as the apoptotic markers Bax, caspase-3, and caspase-9 [33]. BIORAD iScript™ One-Step RT-PCR kit with SYBR® Green was used to assess the relative levels of expression of apoptosis markers. The measurement was carried out according to the technique of reverse transcription polymerase chain reaction (RT-PCR) using the Rotor-Gene RT-PCR system, and the method of the used kit was done based on the manufacturer's instructions. The procedure of this assay included the following:
Based on the manufacturer's instructions, the Qiagen RNeasy Extraction Kit (Qiagen Ltd., UK) was used to isolate mRNA from approximately 1 × 10^7 cells according to the cell line.
Mix all the following reagents to get the total volume (50 μl): 2X SYBR® Green RTPCR reaction mixture (25 μl), forward primer […] (1.5 μl), reverse primer […] (1.5 μl), nuclease-free water (11 μl), RNA template (1 pg-100 ng total RNA) (10 μl), and iScript reverse transcriptase (1 μl) for One-Step RT-PCR.
The thermal cycler (Rotor-Gene) program used was as follows: one cycle for reverse transcription at 50°C for 10 minutes and one cycle for RT inactivation/Hot-start activation at 95°C for 5 minutes and then 45 cycles for qPCR (10 s at 95°C, 30 seconds for annealing at 55°C, and 30 seconds for extension at 72°C), and this is followed by the final extension (one cycle) at 72°C for 10 minutes.

MCF-7 cell line = assay: Annexin V-FITC/PI apoptotic assay; format: cell-based, human
From the text: Annexin V-fluorescein isothiocyanate (FITC) and counterstaining with propidium iodide (PI) using the Annexin V-FITC/PI apoptosis detection kit (BD Biosciences, San Diego, CA) were employed to distinguish early and late apoptotic cells according to the manufacturer's directions. Annexin V conjugated with fluorescein isothiocyanate was used to quantify the loss of phosphatidylserine asymmetry in cell membranes involved in apoptosis, and propidium iodide can distinguish between early apoptosis, late apoptotic, and necrotic cells. Analyses were achieved by using a FACSCalibur flow cytometer (BD Biosciences, San Jose, CA).
Cells were gently washed twice with PBS accompanied by tryptic digestion (0.25% trypsin/EDTA) and washed yet again with PBS. All the cells including the floating and adherent ones were harvested, pooled and stained with […] in 1× binding buffer for 15 min at room temperature in the dark. Analyses were achieved by FACS Calibur flow cytometer (BD Biosciences, San Jose, CA).

SMILES | survival percentage (mean ± SEM) ([1]; 4.8828125 μg/ml) [%] | survival percentage (mean ± SEM) ([1]; 9.765625 μg/ml) [%] | survival percentage (mean ± SEM) ([1]; 19.53125 μg/ml) [%] | survival percentage (mean ± SEM) ([1]; 39.0625 μg/ml) [%] | survival percentage (mean ± SEM) ([1]; 78.125 μg/ml) [%] | survival percentage (mean ± SEM) ([1]; 156.25 μg/ml) [%] | survival percentage (mean ± SEM) ([1]; 312.5 μg/ml) [%] | survival percentage (mean ± SEM) ([1]; 625 μg/ml) [%] | survival percentage (mean ± SEM) ([1]; 1250 μg/ml) [%] | survival percentage (mean ± SEM) ([1]; 2500 μg/ml) [%] | survival percentage (mean ± SEM) ([1]; 5000 μg/ml) [%] | survival percentage (mean ± SEM) ([1]; 10000 μg/ml) [%] | fold more effective anticancer activity than 5-FU ([1]; MCF-7 cell line) [fold] | survival percentage (mean ± SEM) ([2]; 4.8828125 μg/ml) [%] | survival percentage (mean ± SEM) ([2]; 9.765625 μg/ml) [%] | survival percentage (mean ± SEM) ([2]; 19.53125 μg/ml) [%] | survival percentage (mean ± SEM) ([2]; 39.0625 μg/ml) [%] | survival percentage (mean ± SEM) ([2]; 78.125 μg/ml) [%] | survival percentage (mean ± SEM) ([2]; 156.25 μg/ml) [%] | survival percentage (mean ± SEM) ([2]; 312.5 μg/ml) [%] | also measured
CCOC(=O)Cn1c(SCC(=O)Nc2ccc(C(=O)/C=C\c3cccc([N+](=O)[O-])c3)cc2)nc2sc3c(c2c1=O)CC(C)(C)NC3(C)C [Compound 3g, Ethyl (Z)-2-(6,6,8,8-Tetramethyl-2-((2-((4-(3-(3-nitrophenyl)acryloyl)-phenyl)amino)-2-oxoethyl)thio)-4-oxo-5,6,7,8-tetrahydropyrido[4′,3′:4,5]thieno[2,3-d]pyrimidin-3(4H)-yl)acetate] | 105.3 ± 0.032 | 98.2 ± 0.023 | 96.4 ± 0.003 | 81.0 ± 0.009 | 28.0 ± 0.015 | 20.1 ± 0.003 | 19.4 ± 0.004 | 19.9 ± 0.001 | 19.9 ± 0.002 | 19.0 ± 0.001 | 18.9 ± 0.001 | 15.3 ± 0.000 | 350.4 | 131.3 ± 0.033 | 115.9 ± 0.098 | 97.8 ± 0.053 | 64.1 ± 0.038 | 17.5 ± 0.002 | 14.5 ± 0.003 | 14.1 ± 0.002 | survival percentage (mean ± SEM) ([2]; 625 μg/ml): 13.0 ± 0.003%; survival percentage (mean ± SEM) ([2]; 1250 μg/ml): 12.5 ± 0.001%; survival percentage (mean ± SEM) ([2]; 2500 μg/ml): 12.7 ± 0.002%; survival percentage (mean ± SEM) ([2]; 5000 μg/ml): 12.5 ± 0.001%; survival percentage (mean ± SEM) ([2]; 10000 μg/ml): 12.3 ± 0.002%; fold more potent activity than 5-FU ([2]; HepG2 cell line): 420.94 fold; expression levels of Bcl-2 [3]: noticeably decreased
CCOC(=O)Cn1c(SCC(=O)Nc2ccc(C(=O)/C=C\c3cc(OC)c(OC)c(OC)c3)cc2)nc2sc3c(c2c1=O)CCN(C(=O)OCC)C3 [Compound 3b, Ethyl (Z)-3-(2-Ethoxy-2-oxoethyl)-4-oxo-2-((2-oxo-2-((4-(3-(3,4,5 trimethoxyphenyl)acryloyl)phenyl)amino)ethyl)thio)-3,5,6,8 tetra-hydropyrido[4′,3′:4,5]thieno[2,3-d]pyrimidine-7(4H)-carboxylate] | 104.9 ± 0.016 | 102.6 ± 0.015 | 83.2 ± 0.022 | 31.8 ± 0.009 | 27.7 ± 0.026 | 21.3 ± 0.013 | 21.0 ± 0.001 | 20.3 ± 0.002 | 20.3 ± 0.001 | 20.1 ± 0.001 | 19.7 ± 0.002 | 17.3 ± 0.001 | 846.5 | 110.1 ± 0.046 | 67.9 ± 0.048 | 23.2 ± 0.012 | 18.4 ± 0.006 | 17.3 ± 0.007 | 16.2 ± 0.004 | 13.3 ± 0.004 | times more activity compared to compound 3g ([1]; MCF-7 cell line): ~ 2.5 times; survival percentage (mean ± SEM) ([2]; 625 μg/ml): 12.9 ± 0.006%; survival percentage (mean ± SEM) ([2]; 1250 μg/ml): 12.7 ± 0.002%; survival percentage (mean ± SEM) ([2]; 2500 μg/ml): 12.2 ± 0.001%; survival percentage (mean ± SEM) ([2]; 5000 μg/ml): 12.1 ± 0.001%; survival percentage (mean ± SEM) ([2]; 10000 μg/ml): 12.1 ± 0.002%; times more activity compared to compounds 3a and 3c ([2]; HepG2 cell line): ~ 18 times; total, early, and late apoptosis as well as necrosis relative to the control cells (MCF-7 cell line): significant increase
